Test results published in US10208033B2, “β-carboline, dihydro-β-carboline and tetrahydro-β-carboline alkaloid derivatives and preparation methods same and use in aspects of preventing and treating plant viruses, fungicides and insecticides” (NANKAI UNIVERSITY, priority 2013, dated 2019).
Where a name gives a salt, the structure may show the parent alone.

Key:
[1] = system: cucumber fusarium wilt; test: Fungicidal (bactericidal) activity in vitro, PDA colony diameter; type: cell-based; details: Fusarium, 96 h; 50 mg/kg
[2] = system: Fusarium graminearumt; test: microbe, parasite or virus in culture; type: cell-based; details: Fusarium, 96 h, read-out: Bactericidal activity (%) Fusarium graminearumt
[3] = system: Rhizoctonia cereali; test: Fungicidal (bactericidal) activity in vitro, PDA colony diameter; type: cell-based; details: Rhizoctonia, 96 h; 50 mg/kg
[4] = system: Cercospora arachidicola; test: as above; type: cell-based; details: Mycosphaerella arachidis, 96 h; 50 mg/kg
[5] = system: tobacco mosaic virus (TMV); test: Anti-TMV in vivo therapeutic effect; parameters: species or system tobacco mosaic virus (host Nicotiana tabacum L.cv.Xanthi NN); details: Tobacco mosaic virus, read-out: Relative inhibition rate (%) In vivo therapy; for inhibition at 100 µg/mL: treatment dose 100 μg/mL; for inhibition at 500 µg/mL: treatment dose 500 μg/mL
[6] = system: tobacco mosaic virus (TMV); test: Anti-TMV activity, overall statements on Table 1; type: in vivo, tobacco mosaic virus (host Nicotiana tabacum L.cv.Xanthi NN); details: 100 μg/mL versus ningnanmycin at 100 μg/mL
[7] = system: potato late blight; test: microbe, parasite or virus in culture; type: cell-based; details: Phytophthora infestans, 96 h, read-out: Bactericidal activity (%) potato late blight
[8] = system: corn borers; test: whole plant or invertebrate; details: read-out: Corn borer Mortality (%)
[9] = system: Botrytis cinerea; test: Fungicidal (bactericidal) activity in vitro, PDA colony diameter; type: cell-based; details: Botrytis cinerea, 96 h; 50 mg/kg
[10] = system: cotton bollworms; test: whole plant or invertebrate; details: Helicoverpa armigera, in Gossypium hirsutum, read-out: Cotton bollworm Mortality (%)
Experimental: Experimental method of cotton bollworms: feed and drug mixing method: measure 3 mL of prepared solution and add it to about 27 g of newly prepared feed, thereby obtaining needed concentration through dilution by 10 times.

[11] = system: tobacco mosaic virus (TMV); test: Anti-TMV in vivo inactivation; parameters: species or system tobacco mosaic virus (host Nicotiana tabacum L.cv.Xanthi NN); details: Tobacco mosaic virus, read-out: Relative inhibition rate (%) In vivo inactivation; for inhibition at 100 µg/mL: treatment dose 100 μg/mL; for inhibition at 500 µg/mL: treatment dose 500 μg/mL
[12] = system: armyworms, cotton bollworms and corn borers; test: Insecticidal activity, overall statements on Table 3; type: in vivo; details: Table 3, 600 mg/kg
[13] = system: Fusarium fujikuroi; test: Fungicidal (bactericidal) activity in vitro, PDA colony diameter; type: cell-based; details: Fusarium fujikuroi, 96 h; 50 mg/kg
[14] = system: Macrophoma kawatsukai; test: as above; type: cell-based; details: 50 mg/kg
[15] = system: Sclerotinia scleotiorum; test: as above; type: cell-based; details: Sclerotinia, 96 h; 50 mg/kg
[16] = system: tobacco mosaic virus (TMV); test: Anti-TMV in vitro effect (half-leaf soaking); type: cell-based, tobacco mosaic virus (host Nicotiana tabacum L.cv.Xanthi NN); details: Tobacco mosaic virus, read-out: Relative inhibition rate (%) In vitro activity; for inhibition at 100 µg/mL: treatment dose 100 μg/mL; for inhibition at 500 µg/mL: treatment dose 500 μg/mL
[17] = system: tobacco mosaic virus (TMV); test: Anti-TMV in vivo protective effect; parameters: species or system tobacco mosaic virus (host Nicotiana tabacum L.cv.Xanthi NN); details: Tobacco mosaic virus, read-out: Relative inhibition rate (%) In vivo protection; for inhibition at 100 µg/mL: treatment dose 100 μg/mL; for inhibition at 500 µg/mL: treatment dose 500 μg/mL
[18] = system: armyworms; type: in vivo; details: concentration 600 mg/kg
[19] = system: Bipolaria maydis; test: organism not typed; type: cell-based; details: read-out: Bactericidal activity (%) Bipolaria maydis
[20] = system: Phytophthora capsici; test: Fungicidal (bactericidal) activity in vitro, PDA colony diameter; type: cell-based; details: Phytophthora capsici, 96 h; 50 mg/kg
[21] = system: Rhizoctonia solani; test: as above; type: cell-based; details: Rhizoctonia solani, 96 h; 50 mg/kg
[22] = system: Colletotrichum orbiculare; test: as above; type: cell-based; details: Colletotrichum orbiculare, 96 h; 50 mg/kg
[23] = system: Alternaria solani; test: as above; type: cell-based; details: Alternaria solani, 96 h; 50 mg/kg
[24] = system: mosquito larvae; test: whole plant or invertebrate; details: for mortality at 5 mg/kg / mortality at 10 mg/kg: Culex pipiens, 24 h, read-out: Mosquito larvae Mortality (%); for activity against culex pipiens larvae (in words): at 5 mg/kg
Procedure, shortened: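 Compound dissolved in acetone (or other solvent) to a 1000 ppm stock and diluted in water to 5 ppm. Ten Culex pipiens pallens larvae at the start of the fourth instar, laboratory-reared, added per beaker; solvent-only aqueous control.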

Compound | inhibition of growth at 50 mg/kg [1] | inhibition of growth at 50 mg/kg [2] | inhibition of growth at 50 mg/kg [3] | inhibition of growth at 50 mg/kg [4] | inhibition at 100 µg/mL [5] | inhibition at 500 µg/mL [5] | inhibition of growth at 50 mg/kg [7] | mortality at 600 mg/kg [8] | inhibition of growth at 50 mg/kg [9] | mortality at 600 mg/kg [10] | inhibition at 100 µg/mL [11] | inhibition at 500 µg/mL [11] | activity against armyworms, cotton bollworms and corn borers (in words) [12] | inhibition of growth at 50 mg/kg [13] | inhibition at 50 mg/kg [14] | inhibition of growth at 50 mg/kg [15] | inhibition at 100 µg/mL [16] | inhibition at 500 µg/mL [16] | inhibition at 100 µg/mL [17] | inhibition at 500 µg/mL [17] | also measured
CCOC(=O)[C@@H]1Cc2c([nH]c3ccccc23)[C@H](C)N1 [Ib-13, (1S, 3S)-1-methyl-2,3,4,9-tetrahydropyridino [3,4-b] indol-3-ethyl formate] | 28.6% | 21.4% | 59.4% | 50% | 17.5% | 43.9% | 30% | 55% | 68.2% | 30% | 25.7% | 50.4% | broad-spectrum activity | 42.9% | 29.4% | 68% | 21.8% | 46.5% | 18.6% | 47.9% | anti-TMV activity compared with ningnanmycin [6]: equivalent to the activity of commercial variety ningnanmycin; Armyworm Mortality (%) [18]: 60%; inhibition at 50 mg/kg [19]: 26.3%; inhibition of growth at 50 mg/kg [20]: 60.6%; inhibition of growth at 50 mg/kg [21]: 33.9%; inhibition of growth at 50 mg/kg [22]: 38.1%; inhibition of growth at 50 mg/kg [23]: 55.6%; mortality at 5 mg/kg [24]: 60%; mortality at 10 mg/kg [24]: 100%; activity against culex pipiens larvae (in words) [24]: still show high activity
CCCCNC(=O)[C@@H]1Cc2c([nH]c3ccccc23)[C@H](C)N1 [Ib-16, (1S, 3S)—N-butyl-1-methyl-2,3,4,9-tetrahydro-pyridino [3,4-b] indol-3-formamide] | 23.1% | 14.3% | 57.9% | 84.6% | 21.1% | 44.9% | 22.7% | 50% | 18.2% | 50% | 13.5% | 44% | broad-spectrum activity | 14.3% | 33.3% | 0% | 0% | 38.4% | 15.8% | 42.1% | Armyworm Mortality (%) [18]: 65%; inhibition at 50 mg/kg [19]: 18.2%; inhibition of growth at 50 mg/kg [20]: 18.8%; inhibition of growth at 50 mg/kg [21]: 46.1%; inhibition of growth at 50 mg/kg [22]: 28.6%; inhibition of growth at 50 mg/kg [23]: 21.1%; mortality at 5 mg/kg [24]: 60%; mortality at 10 mg/kg [24]: 100%; activity against culex pipiens larvae (in words) [24]: still show high activity
